The term Ki denotes the equilibrium dissociation constant of an inhibitor or competing ligand from its target.

Consider 11 molecules from paper PMC8707586, “New Inhibitors of Laccase and Tyrosinase by Examination of Cross-Inhibition between Copper-Containing Enzymes” (International Journal of Molecular Sciences, 2021).

Test [1] has as its target T1, dopamine-β-hydroxylase (DBH) (Homo sapiens, UniProt P09172).
T1 construct: purchased
T1 sequence (P09172 1-617): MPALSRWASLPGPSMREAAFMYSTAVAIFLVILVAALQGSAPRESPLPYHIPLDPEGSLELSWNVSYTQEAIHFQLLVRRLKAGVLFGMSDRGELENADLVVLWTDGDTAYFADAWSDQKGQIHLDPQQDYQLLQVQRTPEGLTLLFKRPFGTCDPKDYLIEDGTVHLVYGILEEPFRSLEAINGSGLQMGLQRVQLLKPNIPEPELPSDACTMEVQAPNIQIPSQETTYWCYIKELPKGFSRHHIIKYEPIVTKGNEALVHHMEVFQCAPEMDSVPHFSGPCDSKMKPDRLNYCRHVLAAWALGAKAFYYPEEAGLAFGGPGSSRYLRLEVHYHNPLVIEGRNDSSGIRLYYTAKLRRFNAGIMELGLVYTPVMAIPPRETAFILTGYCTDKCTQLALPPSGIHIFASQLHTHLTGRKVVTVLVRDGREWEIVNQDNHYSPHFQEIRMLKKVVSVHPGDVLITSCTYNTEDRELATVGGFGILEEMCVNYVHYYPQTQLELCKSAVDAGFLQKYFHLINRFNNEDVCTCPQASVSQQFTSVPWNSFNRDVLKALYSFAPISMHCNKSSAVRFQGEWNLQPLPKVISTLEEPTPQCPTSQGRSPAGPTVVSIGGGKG
As to the kind of experiment: DBH activity assay (DMPD, tyramine). The following applies: for Ki: Ki from IC50 by Cheng–Prusoff. In kind it is biochemical. On the procedure: (§1) Enzyme activity with inhibitors—All chemical reagents were purchased from either Tokyo Chemical Industry (Tokyo, Japan), ChemBridge (San Diego, CA, USA), or Sigma-Aldrich (St. Louis, MO, USA). The reaction mixture for the tyrosinase assay comprised 20 nM tyrosinase and 500 µM L-DOPA in phosphate-buffered saline. The solution for the ceruloplasmin activity assay comprised 20 nM ceruloplasmin and 500 µM N,N-dimethyl-p-phenylenediamine (DMPD) in 100 mM of sodium acetate buffer at a pH of 5.5. The DBH activity assay was conducted in a reaction mixture containing 10 nM DBH, 500 µM DMPD, and 500 µM tyramine. The solution for the laccase activity assay comprised either 150 nM T. versicolor laccase or 350 nM A. oryzae laccase and 500 µM L-DOPA in 100 mM sodium phosphate buffer with a pH of 5.5. All the solutions included 0.01% Triton X-100 and 5% DMSO in the absence or presence of the inhibitor. After the addition of inhibitors, the solutions were incubated for 15 min at 30 °C. The absorbances of tyrosinase, laccase, ceruloplasmin, and DBH were measured at 475, 475, 550, and 515 nm, respectively, after the addition of substrate to the mixture solution, in a time-dependent manner. […] The Cheng–Prusoff equation with Km was employed to convert the IC50 value into the inhibitory constant, Ki, for each inhibitor [46].

The target of test [2] is A. oryzae laccase. As to the kind of experiment: Laccase activity assay (L-DOPA substrate), A. oryzae. In kind it is biochemical, Aspergillus oryzae. Conditions: Ki from IC50 by Cheng–Prusoff, 0.01% Triton X-100. On the procedure: as §1
The subject of test [3] is laccases. As to the kind of experiment: Laccase activity assay, statements on both laccases together. In kind it is biochemical, T. versicolor and A. oryzae. Conditions: 50 μM. How it is done: as §1
For test [4], the system named is laccases. As to the kind of experiment: Enzyme inhibitory kinetics, laccases from both sources together. In kind it is biochemical, T. versicolor and A. oryzae. The following applies: nonlinear fitting of enzyme kinetics. On the procedure:
(§2) Enzyme inhibitory kinetics—The velocities during the generation of the product for each enzyme were measured by varying the substrate and inhibitor concentrations. Simultaneous and nonlinear fitting of all profiles in an inhibitor minimized the Χ^2 value of the differences of theoretical and experimental values in the Michaelis–Menten equation, expressed with the competitive, uncompetitive, noncompetitive, and mixed models. […] The reduced Χ^2 values between the models were compared based on F-statistic to select the most appropriate model. All fittings and statistical analyses were conducted using MATLAB from MathWorks (Natick, MA, USA).

Test [5] deals with A. oryzae laccase. As to the kind of experiment: Enzyme inhibitory kinetics, A. oryzae laccase. In kind it is biochemical, Aspergillus oryzae. Conditions: read-out: ** Ki, simulated inhibitory constant by nonlinear fitting assuming competitive inhibition. How it is done:
as §2

Test [6] deals with T2, mushroom tyrosinase (Agaricus bisporus, UniProt C7FF04). The arrangement: method as in PMID 24074025. Conditions: cited from earlier work.
T2 sequence (C7FF04 1-392): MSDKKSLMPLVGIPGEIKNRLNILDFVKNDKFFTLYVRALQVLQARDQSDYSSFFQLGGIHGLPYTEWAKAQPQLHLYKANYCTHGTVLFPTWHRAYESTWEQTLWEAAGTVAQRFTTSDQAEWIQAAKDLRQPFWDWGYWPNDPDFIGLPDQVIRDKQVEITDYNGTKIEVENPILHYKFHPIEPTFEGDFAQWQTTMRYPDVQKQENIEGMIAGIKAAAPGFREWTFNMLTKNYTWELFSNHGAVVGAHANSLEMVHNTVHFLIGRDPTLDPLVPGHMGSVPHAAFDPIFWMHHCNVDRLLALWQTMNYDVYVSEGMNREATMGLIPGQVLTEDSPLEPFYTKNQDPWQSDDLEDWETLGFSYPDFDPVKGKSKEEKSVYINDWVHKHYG
The target of test [7] is T2, mushroom tyrosinase. As to the kind of experiment: Tyrosinase enzyme activity assay (L-DOPA substrate). In kind it is biochemical. On the procedure:
as §1

The target of the next test is T3, T. versicolor laccase (Trametes versicolor, UniProt Q12718).
T3 sequence (Q12718 21-519): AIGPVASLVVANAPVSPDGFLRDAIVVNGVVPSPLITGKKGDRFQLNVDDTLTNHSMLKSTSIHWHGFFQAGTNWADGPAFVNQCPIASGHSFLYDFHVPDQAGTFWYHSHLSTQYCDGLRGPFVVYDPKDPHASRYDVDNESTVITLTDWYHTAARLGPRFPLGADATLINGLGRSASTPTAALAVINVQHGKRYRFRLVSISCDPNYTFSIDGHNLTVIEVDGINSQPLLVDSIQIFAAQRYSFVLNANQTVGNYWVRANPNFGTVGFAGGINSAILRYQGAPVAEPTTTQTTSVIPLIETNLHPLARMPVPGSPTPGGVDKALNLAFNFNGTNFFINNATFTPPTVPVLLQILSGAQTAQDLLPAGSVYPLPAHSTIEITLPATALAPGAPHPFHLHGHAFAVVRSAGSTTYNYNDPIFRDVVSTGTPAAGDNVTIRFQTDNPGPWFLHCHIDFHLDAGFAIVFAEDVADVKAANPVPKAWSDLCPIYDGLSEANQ
As to the kind of experiment: Laccase activity assay (L-DOPA substrate), T. versicolor. In kind it is biochemical. Conditions: Ki from IC50 by Cheng–Prusoff, 0.01% Triton X-100. On the procedure: as §1

A further test has as its target T4, ceruloplasmin (Homo sapiens, UniProt P00450).
T4 construct: purchased
T4 sequence (P00450 20-1065): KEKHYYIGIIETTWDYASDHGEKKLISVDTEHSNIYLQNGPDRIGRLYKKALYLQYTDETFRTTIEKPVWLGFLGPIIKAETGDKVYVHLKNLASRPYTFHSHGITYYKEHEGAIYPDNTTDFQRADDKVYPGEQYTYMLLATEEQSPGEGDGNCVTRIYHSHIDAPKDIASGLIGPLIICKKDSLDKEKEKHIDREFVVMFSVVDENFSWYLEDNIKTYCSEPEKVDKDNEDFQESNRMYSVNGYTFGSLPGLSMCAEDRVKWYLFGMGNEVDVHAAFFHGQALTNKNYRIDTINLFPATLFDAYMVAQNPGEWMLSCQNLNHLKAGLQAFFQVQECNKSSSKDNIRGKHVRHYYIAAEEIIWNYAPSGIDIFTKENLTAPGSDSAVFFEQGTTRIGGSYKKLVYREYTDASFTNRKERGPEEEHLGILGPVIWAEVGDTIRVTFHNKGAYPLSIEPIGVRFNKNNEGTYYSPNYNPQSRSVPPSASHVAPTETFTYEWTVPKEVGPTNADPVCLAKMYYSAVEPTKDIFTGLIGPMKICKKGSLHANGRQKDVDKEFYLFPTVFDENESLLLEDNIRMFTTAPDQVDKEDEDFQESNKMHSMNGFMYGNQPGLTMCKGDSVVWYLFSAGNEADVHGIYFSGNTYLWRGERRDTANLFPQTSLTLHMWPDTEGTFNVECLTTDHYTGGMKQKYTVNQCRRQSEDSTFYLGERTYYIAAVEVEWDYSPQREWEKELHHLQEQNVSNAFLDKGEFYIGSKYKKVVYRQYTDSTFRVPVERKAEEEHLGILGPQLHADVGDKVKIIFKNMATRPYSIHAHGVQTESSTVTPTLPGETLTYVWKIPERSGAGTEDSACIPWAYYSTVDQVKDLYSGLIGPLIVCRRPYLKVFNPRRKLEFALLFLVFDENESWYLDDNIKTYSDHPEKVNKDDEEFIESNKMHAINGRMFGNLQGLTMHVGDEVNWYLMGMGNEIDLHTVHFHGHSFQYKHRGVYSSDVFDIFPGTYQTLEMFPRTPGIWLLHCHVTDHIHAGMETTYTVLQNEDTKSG
As to the kind of experiment: Ceruloplasmin activity assay (DMPD substrate). In kind it is biochemical. Conditions: Ki from IC50 by Cheng–Prusoff. On the procedure:
as §1

As to `O=c1cccccc1O` [compound 26, tropolone], in test [1], the “inhibition of DBH activity” value is reported as “significantly decreased DBH activity” and the Ki came out at 9.3 ± 5.5 µM. The Ki at A. oryzae laccase [2] was above 1000 µM.

Regarding `NC(=S)Nc1ccccc1` [compound 24, phenylthiourea (PTU)], the Ki at A. oryzae laccase [2] is above 1000 µM.

As to `O=C(O)C(S)C(S)C(=O)O` (stereo not drawn) [compound 19, dimercaptosuccinate], the “inhibitory activities against laccases” value in the test with laccases [3] is “substantial inhibitory activities”. The Mechanism of inhibition entry in the test on laccases [4] is “Competitive”; in the test on laccases [4] (listed as dimercaptosuccinate), “competitive mode”. The figures for the Ki at A. oryzae laccase [2], on A. oryzae laccase [2] (listed as dimercaptosuccinate) and at A. oryzae laccase [5] were 37.3 ± 5.6 µM, 37 µM and 13.1 µM, respectively.

`O=c1cc(CO)occ1O` [compound 12, kojic acid] yielded a Ki on A. oryzae laccase [2] above 1000 µM.

Take `S=c1[nH]cnc2nc[nH]c12` [compound 1, mercaptopurine]: the “inhibitory activities against laccases” value in the test on laccases [3] is given as “substantial inhibitory activities”. For the same molecule, the Mechanism of inhibition entry in the test with laccases [4] was “Competitive”; in the test on laccases [4] (listed as mercaptopurine) it was “competitive mode”. Besides, the Ki on A. oryzae laccase [2] is 15.1 ± 4.6 µM; at A. oryzae laccase [2] (listed as mercaptopurine), 15 µM; on A. oryzae laccase [5], 17.2 µM.

As to `C[C@H](CS)C(=O)N1CCC[C@H]1C(=O)O` [compound 11, captopril], at mushroom tyrosinase [6], the “inhibition of tyrosinase (words, literature)” value is given as “slightly inhibited”. In addition, in the test with laccases [3], the “inhibitory activities against laccases” value is “substantial inhibitory activities”. Moreover, the values for the Mechanism of inhibition result in the test with laccases [4] and in the test on laccases [4] (listed as captopril) were “Competitive” and “competitive mode”, respectively. Besides, the “inhibition of tyrosinase activity” value on mushroom tyrosinase [7] was “inhibits tyrosinase activity”. Also, the Ki is 26.3 ± 2.4 µM at A. oryzae laccase [2], 26 µM on A. oryzae laccase [2] (listed as captopril) and 32.4 µM on A. oryzae laccase [5].

Regarding `[NH4+].[NH4+].[SH-].[SH-].[S]=[Mo]=[S]` [compound 28, ammonium tetrathiomolybdate (ATMD)], the Ki on T. versicolor laccase was 12.3 ± 1.3 µM; at T. versicolor laccase (listed as AMTD), 12 µM; at ceruloplasmin, 10.9 ± 1.4 µM; in [1], 23.7 ± 2.7 µM; on A. oryzae laccase [2], 10.5 ± 2.5 µM; on A. oryzae laccase [2] (listed as AMTD), 10 µM. For the same molecule, the “inhibition of DBH activity” value in [1] is reported as “significantly decreased DBH activity”.

As to `Cn1cc[nH]c1=S` [compound 16, methimazole], in test [1] (50 µM), the “inhibition of DBH at single concentration” value was “neither methimazole nor other thione-containing test molecules significantly inhibited DBH”.

As to `Nc1nc2nc[nH]c2c(=S)[nH]1` [compound 2, thioguanine], the “inhibitory activities against laccases” value in the test on laccases [3] is “substantial inhibitory activities”. Further, the Mechanism of inhibition result in the test with laccases [4] was “Competitive”; with laccases [4] (listed as thioguanine), “competitive mode”. Also, the Ki on A. oryzae laccase [2] was 21.2 ± 1.7 µM; on A. oryzae laccase [2] (listed as thioguanine), 21 µM; at A. oryzae laccase [5], 26.2 µM.

Turning to `[N-]=[N+]=[N-].[Na+]` [compound 27, sodium azide], the Ki at T. versicolor laccase came to 4.2 ± 1.3 µM; at T. versicolor laccase (listed as sodium azide) it was 4 µM; on ceruloplasmin, 1.6 ± 0.3 µM; in [1], 70.6 ± 11.6 µM; at A. oryzae laccase [2] it was 3.1 ± 1.7 µM; on A. oryzae laccase [2] (listed as sodium azide), 3 µM. Further, the “inhibition of DBH activity” value in test [1] is listed as “moderate inhibition”.

Regarding `OCC(S)CS` (stereo not drawn) [compound 18, dimercaptopropanol], in the test on laccases [3], the “inhibitory activities against laccases” value is on record as “substantial inhibitory activities”. Further, the Mechanism of inhibition entry was “Competitive” in the test with laccases [4] and “competitive mode” in the test with laccases [4] (listed as dimercaptopropanol). Moreover, the “inhibition of DBH activity” value in test [1] is on record as “moderate inhibition”. Besides, the Ki was 57.9 ± 7.6 µM in test [1], 18.6 ± 3.3 µM at A. oryzae laccase [2], 18 µM on A. oryzae laccase [2] (listed as dimercaptopropanol) and 18 µM on A. oryzae laccase [5].
